Literature values in patent publication US20070196517A1, “Modified Saponin Molluscicide” (priority 2005, published 2007).
Counter-ions that a name gives are not always drawn.

Tests used:
golden apple snails = conditions: rice fields (Bayer, 2005)
tropical fish (carp) = conditions: carp (WHO 2002)

O=C(Nc1ccc([N+](=O)[O-])cc1Cl)c1cc(Cl)ccc1O [Niclosamide, 2-aminoethanol salt of 2′,5-dichloro-4′,nitro-salicylanilide]
effective doses for control of golden apple snail (golden apple snails): 0.5 to 1.0 mg/L
LC50 (kills 50% of tropical fish) (tropical fish (carp)): 0.14 µg/mL
